Publication PMC4102417 (PLoS Neglected Tropical Diseases, 2014)
Counter-ions that a name gives are not always drawn. Like-named read-outs stand apart in the source and are kept apart here.

Assays:
[1] = system: T. cruzi (Tulahuen strain); assay: microbe, parasite or virus in culture; assay type: cell-based, Trypanosoma cruzi; settings: for activity at 10 µM: read-out: T. cruzi % growth @ 10 uM (Amastigotes); for EC50: read-out: T. cruzi EC50
Method in brief: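 Tulahuen parasites expressing beta-galactosidase were added (1×10^4 trypomastigotes/well) to 3T3 fibroblasts plated 24 h earlier, 4 h before compound (10 µM final).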

in vitro = assay type: cell-based, murine; settings: mouse
3T3 fibroblast cells = assay: in vitro; assay type: cell-based, murine; settings: for CC50: 3T3 fibroblasts, 72 hours, separate assays separated by semicolons, read-out: Mammalian cell CC50; for activity at 10 µM: Mus musculus, NIH3T3, 72 h, read-out: Mammalian (3T3) cell % growth at 10 uM
[2] = Trypanosoma cruzi, TULAHUEN, Fibroblast, 120 h, 10 uM, Table S2
[3] = Trypanosoma cruzi, TULAHUEN, Fibroblast, 120 h, intracellular amastigotes, 5 days, separate assays separated by semicolons
[4] = average mammalian cell CC50 divided by average T. cruzi EC50
[5] = intracellular amastigotes, 5 days, separate assays separated by semicolons
[6] = 3T3 fibroblasts, 72 hours, separate assays separated by semicolons, read-out: Mammalian cell CC50
[7] = Trypanosoma cruzi, TULAHUEN, Fibroblast, Table S2, amastigotes

Row | SMILES | activity at 10 µM [1, 2] | EC50 [1, 3] | activity at 10 µM (3T3 fibroblast cells; 10 uM, Table S2) | also measured
1 | CN(C)CCC=C1c2ccccc2CCc2ccccc21 [Amitriptyline, dimethyl(3-{tricyclo[9.4.0.0^{3,8}]pentadeca-1(15),3,5,7,11,13-hexaen-2-ylidene}propyl)amine] | 15.7% | 3.56 µM | 100% | Selectivity index [1, 4]: 5.7; EC50 [1, 5]: 6.6 µM; CC50 (in vitro; [6]): 36300 nM; CC50 (3T3 fibroblast cells): 22 µM
2 | CN(C)CC/C=C1/c2ccccc2Sc2ccc(Cl)cc21 [Chlorprothixene, {3-[(9Z)-2-chloro-9H-thioxanthen-9-ylidene]propyl}dimethylamine] | 1.8% | 2.35 µM | 97.1% | Selectivity index [1]: 5.2; EC50 [1, 5]: 2.6 µM; CC50 (in vitro; [6]): 12900 nM
3 | Cl.OC(c1cc(C(F)(F)F)nc2c(C(F)(F)F)cccc12)C1CCCCN1 (stereo not drawn) [Mefloquine, [2,8-bis(trifluoromethyl)quinolin-4-yl](piperidin-2-yl)methanol hydrochloride] | 2.6% | 6.1 µM | 94.7% | Selectivity index [1, 4]: 2.0; CC50 (in vitro; [6]): 12100 nM
4 | CN(C)c1ccc(O)c2c1CC1CC3C(N(C)C)C(O)=C(C(N)=O)C(=O)C3(O)C(O)=C1C2=O.Cl (stereo not drawn) [Minocycline, 4,7-bis(dimethylamino)-3,10,12,12a-tetrahydroxy-1,11-dioxo-1,4,4a,5,5a,6,11,12a-octahydrotetracene-2-carboxamide hydrochloride] | 10.2% | 9.8 µM | 83.2% | Selectivity index [1]: >5.1; CC50 (in vitro; [6]): > 50000 nM
5 | NCCC(O)(P(=O)(O)O)P(=O)(O)O [Pamidronate] | – | 3 µM | – | Selectivity index [1, 4]: 8.6; CC50 (in vitro; [6]): 25700 nM
6 | Cl.Fc1ccc(C2CCNCC2COc2ccc3c(c2)OCO3)cc1 (stereo not drawn) [Paroxetine, 3-[(2H-1,3-benzodioxol-5-yloxy)methyl]-4-(4-fluorophenyl)piperidine hydrochloride] | 6.8% | 3.3 µM | 100% | Selectivity index [1]: 4.2; EC50 [1, 5]: 5.6 µM; CC50 (in vitro; Mammalian cell CC50 (nM)): 18800 nM
7 | N=C(N)c1ccc(OCCCCCOc2ccc(C(=N)N)cc2)cc1 [Pentamidine, 2-hydroxyethane-1-sulfonic acid; 4-{[5-(4-carbamimidoylphenoxy)pentyl]oxy}benzene-1-carboximidamide] | 17.6% | 0.181 µM | 94.8% | EC50 [1, 7]: 0.18 µM; Selectivity index [1, 4]: >276; CC50 (in vitro; [6]): > 50000 nM
8 | COC(=O)C1C2CC3c4[nH]c5cc(OC)ccc5c4CCN3CC2CC(OC(=O)c2cc(OC)c(OC)c(OC)c2)C1OC (stereo not drawn) [RESERPINE, methyl 6,18-dimethoxy-17-[(3,4,5-trimethoxyphenyl)carbonyloxy]-3,13-diazapentacyclo[11.8.0.0^{2,10}.0^{4,9}.0^{15,20}]henicosa-2(10),4(9),5,7-tetraene-19-carboxylate] | 4% | – | 100% | EC50 [1, 7]: 5.97 µM; EC50 ([1]; Trypanosoma cruzi, TULAHUEN, Fibroblast): < 10 µM
9 | CNc1ccccc1C(=O)N1CCc2c([nH]c3ccccc23)C1=O [RHETSININE, 2-{[2-(methylamino)phenyl]carbonyl}-1H,2H,3H,4H,9H-pyrido[3,4-b]indol-1-one] | 5.9% | – | 75.7% | –
10 | C=CCN(C)CCCCCCOc1ccc(C(=O)c2ccc(Br)cc2)c(F)c1 [Ro 48-8071] | – | – | – | EC50 [1, 5]: 0.41 µM; CC50 (3T3 fibroblast cells): 7.4 µM
11 | COc1ccc2c(c1)OC/C(=C/c1ccc(OC)c(OC)c1)C2=O [SAPPANONE A TRIMETHYL ETHER] | 7.5% | – | 74.6% | –
12 | O=C1C=C2C=CC3CC2(O1)C1CCCCN31 (stereo not drawn) [SECURININE, 14-oxa-7-azatetracyclo[6.6.1.0^{1,11}.0^{2,7}]pentadeca-9,11-dien-13-one] | 1.4% | – | 75% | –
13 | CC1=CC(=O)C2C(C)(C)CCCC2(C)C1(O)CCc1ccoc1 (stereo not drawn) [SOLIDAGENONE, 4-[2-(furan-3-yl)ethyl]-4-hydroxy-3,4a,8,8-tetramethyl-1,4,4a,5,6,7,8,8a-octahydronaphthalen-1-one] | 15.1% | – | 75.8% | –
14 | O=C(CCCN1CCC2(CC1)C(=O)NCN2c1ccccc1)c1ccc(F)cc1 [SPIPERONE, 8-[4-(4-fluorophenyl)-4-oxobutyl]-1-phenyl-1,3,8-triazaspiro[4.5]decan-4-one] | 17.1% | – | 94.7% | –
15 | CCC(C)(C)C(=O)OC1CC(C)C=C2C=CC(C)C(CCC3CC(O)CC(=O)O3)C21 (stereo not drawn) [Simvastatin, 8-[2-(4-hydroxy-6-oxooxan-2-yl)ethyl]-3,7-dimethyl-1,2,3,7,8,8a-hexahydronaphthalen-1-yl 2,2-dimethylbutanoate] | – | 0.4 µM | – | CC50 at 72 h (in vitro; [6]): 4 µM
16 | CCC(=C(c1ccccc1)c1ccc(OCCN(C)C)cc1)c1ccccc1 [TAMOXIFEN, {2-[4-(1,2-diphenylbut-1-en-1-yl)phenoxy]ethyl}dimethylamine] | 22.5% | – | 97% | –
17 | Nc1nc(=S)c2[nH]cnc2[nH]1 [THIOGUANINE, 2-amino-6,7-dihydro-3H-purine-6-thione] | 14.8% | – | 98.3% | –
18 | CCN(CC)CCOc1ccc2c(c1)C(=O)c1cc(OCCN(CC)CC)ccc1-2 [TILORONE, 2,7-bis[2-(diethylamino)ethoxy]-9H-fluoren-9-one] | 7.8% | – | 89% | –
19 | CC1CCC2(NC1)OC1CC3C4CCC5CC(O)CCC5(C)C4CCC3(C)C1C2C (stereo not drawn) [TOMATIDINE, 5',7,9,13-tetramethyl-5-oxaspiro[pentacyclo[10.8.0.0^{2,9}.0^{4,8}.0^{13,18}]icosane-6,2'-piperidine]-16-ol hydrochloride] | 8.5% | – | 100% | –
20 | CC(C)c1c(O)ccc2c1CCC1C(C)(C)CCCC21C (stereo not drawn) [TOTAROL, 4b,8,8-trimethyl-1-(propan-2-yl)-4b,5,6,7,8,8a,9,10-octahydrophenanthren-2-ol] | 21.3% | – | 67.4% | –
21 | CN1CCN(CCCN2c3ccccc3Sc3ccc(C(F)(F)F)cc32)CC1 [TRIFLUOPERAZINE, 10-[3-(4-methylpiperazin-1-yl)propyl]-2-(trifluoromethyl)-10H-phenothiazine] | 20.4% | – | 94.7% | –
22 | CC(C)c1ccc2c(c1O)CCC1C3=C(CCC21C)C(=O)OC3 (stereo not drawn) [TRIPTOPHENOLIDE, 6-hydroxy-1-methyl-5-(propan-2-yl)-13-oxatetracyclo[8.7.0.0^{2,7}.0^{11,15}]heptadeca-2,4,6,11(15)-tetraen-14-one] | 13.8% | – | 83.1% | –
23 | CN(C/C=C/C#CC(C)(C)C)Cc1cccc2ccccc12 [Terbinafine] | – | 17.4 µM | – | Selectivity index [1]: 2.9; CC50 (in vitro; [6]): 51000 nM
24 | CSc1ccc2c(c1)N(CCC1CCCCN1C)c1ccccc1S2 (stereo not drawn) [Thioridazine, 10-[2-(1-methylpiperidin-2-yl)ethyl]-2-(methylsulfanyl)-10H-phenothiazine] | 19.1% | – | 45.7% | CC50 (in vitro; [6]): 6200 nM; CC50 (3T3 fibroblast cells): 8.66 µM
25 | COC(=O)CC1C(C)(C)C(OC(C)=O)C2C(OC(C)=O)C34OC2(O)C1(C)C3CCC1(C)C4=CC(=O)OC1c1ccoc1 (stereo not drawn) [[…], methyl 2-[14,18-bis(acetyloxy)-6-(furan-3-yl)-16-hydroxy-7,11,13,13-tetramethyl-4-oxo-5,17-dioxapentacyclo[13.2.1.0^{1,10}.0^{2,7}.0^{11,16}]octadec-2-en-12-yl]acetate] | 7.2% | – | 89.7% | –
26 | CC(=O)O[C@@H]1CC2C(C)(C)[C@H](O)CC[C@]2(C)C2CC[C@@]3(C)[C@H](c4ccoc4)OC(=O)C4OC43[C@@]21C (stereo partly drawn) [alpha-DIHYDROGEDUNOL] | – | – | – | T. cruzi % growth @ 10 uM (Amastigotes) ([1]; 10 uM, Table S2): 3.8%; Mammalian (3T3) cell % growth at 10 uM (3T3 fibroblast cells; 10 uM, Table S2): 90.8%
27 | CC(=O)OC1CC2C(C)(C)C(O)CCC2(C)C2CCC3(C)C(c4ccoc4)OC(=O)C4OC43C12C (stereo not drawn) [beta-DIHYDROGEDUNOL, 7-(furan-3-yl)-15-hydroxy-1,8,12,16,16-pentamethyl-5-oxo-3,6-dioxapentacyclo[9.8.0.0^{2,4}.0^{2,8}.0^{12,17}]nonadecan-19-yl acetate] | 21.8% | – | 76.3% | –
28 | C=C1C2CCC3(C)C(c4ccoc4)OC(=O)CC13OC1CC(OC(C)=O)C(C)(C)C(CC(=O)OC)C12C (stereo not drawn) [methyl 2-[5-(acetyloxy)-13-(furan-3-yl)-6,6,8,12-tetramethyl-17-methylidene-15-oxo-2,14-dioxatetracyclo[7.7.1.0^{1,12}.0^{3,8}]heptadecan-7-yl]acetate] | 1% | – | 84.1% | –
29 | COC(=O)c1cc(O)c(=O)c2c(O)c(O)ccc2c1 [methyl 3,4,6-trihydroxy-5-oxo-5H-benzo[7]annulene-8-carboxylate] | 18.2% | – | 92.2% | –
